# Several values for one entry are separate records, joined by “and”; a condition that tells them apart may be missing. Equal values may be shown once. Entries after “also recorded” stand apart in the source; their conditions may differ. Where a name gives a salt, the structure may show the parent alone.
# Legend:
# Type in all cases: physicochemical
# [1] = DVS test (dynamic vapor sorption, hygroscopicity); details: for hygroscopicity (in words): DVS
# Procedure: All the three target forms remained no change after DVS test.
# Dynamic Vapor Sorption (DVS) was used to study hygroscopicity on Model Q5000 SA (TA Instruments, New Castle, DE). A sample (1-10 mg) was placed in an aluminum pan and loaded on the sample side of the twin pan balance. The water sorption and desorption were studied as a function of relative humidity (RH) at 25° C. in 10% RH increments from 0% RH to 90% RH and then back to 0%. […] Data analysis was performed using Universal Analysis 2000 Version 4.7A (TA Instruments, New Castle, DE).
# [2] = Solubility in bio-relevant media (SGF, FaSSIF, FeSSIF) and water; details: for XRPD 0.5 h / XRPD 2 h / XRPD 24 h: filter cake; for solubility compared to Freebase Form I (in words): water, FaSSIF and FeSSIF, 37° C.
# Procedure: At 0.5, 2 and 24 hours, about 0.6 mL of each suspension was filtered, the filtrate was analyzed by HPLC and pH meter, and the filter cake was analyzed by XRPD. The samples were prepared in duplicate (n=2) per condition. Average value (n=2) was presented.
# HPLC analysis was performed with an Agilent HPLC 1260 series instrument.
# [3] = Solid-state stability at 60° C. (capped) and 40° C./75% RH (open); details: for XRPD - 7 d / physical and chemical stability: 7 days; for physical and chemical stability: 60° C. (capped) and 40° C./75% RH (open); for Initial Purity: before storage, HPLC
# Procedure: (capped) and 40° C./75% RH (open) for 7 days. Duplicate samples were prepared at each condition. The stability sample was dissolved in diluent to prepare solution at ˜1 mg/mL for HPLC purity analysis. Solid samples were analyzed by XRPD to check the crystal form. […] (capped) and 40° C./75% RH (open) for at least 7 days.
# [4] = FaSSIF, initial pH 6.45, 37° C., average n=2
# [5] = FaSSIF, initial pH 6.45, filtrate
# [6] = FeSSIF, initial pH 4.99, 37° C., average n=2
# [7] = FeSSIF, initial pH 4.99, filtrate
# [8] = Water, initial pH 5.41, 37° C., average n=2
# [9] = Water, initial pH 5.41, filtrate
# [10] = in FaSSIF and FeSSIF, XRPD of filter cake
structure (smiles),measurement,setting,value
"C[C@@H]1[C@@H](Oc2ccc(C(=O)NC3CC3)nc2)CN1Cc1cnc2cc(Cl)c(=O)[nH]c2c1 [Hemiedisylate Salt Form II, 5-(((2R,3S)-1-((7-chloro-6-oxo-5,6-dihydro-1,5-naphthyridin-3-yl)methyl)-2-methylazetidin-3-yl)oxy)-N-cyclopropylpicolinamide]",hygroscopicity (in words),[1],hygroscopic
same,water uptake,[1]; from 0 to 90% RH at 25° C.,about 3.6%
"C[C@@H]1[C@@H](Oc2ccc(C(=O)NC3CC3)nc2)CN1Cc1cnc2cc(Cl)c(=O)[nH]c2c1 [L-Malate Salt Form II, 5-(((2R,3S)-1-((7-chloro-6-oxo-5,6-dihydro-1,5-naphthyridin-3-yl)methyl)-2-methylazetidin-3-yl)oxy)-N-cyclopropylpicolinamide]",hygroscopicity (in words),[1],hygroscopic
same,water uptake,[1]; from 0 to 90% RH at 25° C.,about 4.6%
"C[C@@H]1[C@@H](Oc2ccc(C(=O)NC3CC3)nc2)CN1Cc1cnc2cc(Cl)c(=O)[nH]c2c1 [L-Tartrate Salt Form II, 5-(((2R,3S)-1-((7-chloro-6-oxo-5,6-dihydro-1,5-naphthyridin-3-yl)methyl)-2-methylazetidin-3-yl)oxy)-N-cyclopropylpicolinamide]",hygroscopicity (in words),[1],hygroscopic
same,water uptake,[1]; from 0 to 90% RH at 25° C.,about 10.2%
"C[C@@H]1[C@@H](Oc2ccc(C(=O)NC3CC3)nc2)CN1Cc1cnc2cc(Cl)c(=O)[nH]c2c1 [Maleate Form IV, 5-(((2R,3S)-1-((7-chloro-6-oxo-5,6-dihydro-1,5-naphthyridin-3-yl)methyl)-2-methylazetidin-3-yl)oxy)-N-cyclopropylpicolinamide]",hygroscopicity (in words),[1],slightly hygroscopic
same,water uptake,[1]; at 80% RH,< 1% and 0.6%
same,water uptake,[1]; at 90% RH,0.9%
same,XRPD 0.5 h,[2]; FaSSIF,FB Form I
same,XRPD 2 h,[2]; FaSSIF,FB Form I
same,XRPD 24 h,[2]; FaSSIF,FB Form I
same,Solubility 0.5 h,[2]; [4],397 µg/mL
same,Solubility 2 h,[2]; [4],410 µg/mL
same,Solubility 24 h,[2]; [4],373 µg/mL
same,pH 0.5 h,[2]; [5],4.58
same,pH 2 h,[2]; [5],4.46
same,pH 24 h,[2]; [5],4.43
same,solubility at 24 h,"[2]; FeSSIF, 37 °C, pH 4.99, fessif, thermodynamic from solid, initial pH 4.99, 37° C., average n=2",131 µg/mL
same,XRPD 0.5 h,[2]; FeSSIF,FB Form I
same,XRPD 2 h,[2]; FeSSIF,FB Form I
same,XRPD 24 h,[2]; FeSSIF,FB Form I
same,Solubility 0.5 h,[2]; [6],369 µg/mL
same,Solubility 2 h,[2]; [6],159 µg/mL
same,pH 0.5 h,[2]; [7],4.82
same,pH 2 h,[2]; [7],4.82
same,pH 24 h,[2]; [7],4.79
same,"XRPD 0.5 h, 2 h, 24 h",[2]; SGF,Clear
same,solubility,"[2]; SGF, 37 °C, pH 1.23, simulated gastric fluid, thermodynamic from solid, SGF, initial pH 1.23, 37° C., read-out: Solubility 0.5 h, 2 h, 24 h",> 5000 µg/mL
same,pH 0.5 h,"[2]; SGF, initial pH 1.23, filtrate",1.33
same,pH 2 h,"[2]; SGF, initial pH 1.23, filtrate",1.17
same,pH 24 h,"[2]; SGF, initial pH 1.23, filtrate",1.22
same,"XRPD 0.5 h, 2 h, 24 h",[2]; Water,Little solid
same,Solubility 0.5 h,[2]; [8],4527 µg/mL
same,Solubility 2 h,[2]; [8],4494 µg/mL
same,Solubility 24 h,[2]; [8],3797 µg/mL
same,pH 0.5 h,[2]; [9],3.81
same,pH 2 h,[2]; [9],3.75
same,pH 24 h,[2]; [9],3.90
same,form change of the solid,[2]; [10],dissociated into Freebase Form I
same,solubility compared to Freebase Form I (in words),[2],improved solubility
same,XRPD - 7 d,[3]; 40° C./75% RH (open),Unchanged
same,physical and chemical stability,[3],physically and chemically stable
same,XRPD - 7 d,[3]; 60° C. (capped),Unchanged
same,Initial Purity,[3],99.72 area %
"C[C@@H]1[C@@H](Oc2ccc(C(=O)NC3CC3)nc2)CN1Cc1cnc2cc(Cl)c(=O)[nH]c2c1 [Sulfate Salt Form III, 5-(((2R,3S)-1-((7-chloro-6-oxo-5,6-dihydro-1,5-naphthyridin-3-yl)methyl)-2-methylazetidin-3-yl)oxy)-N-cyclopropylpicolinamide]",hygroscopicity (in words),[1],hygroscopic
same,water uptake,[1]; from 0 to 90% RH at 25° C.,about 6%
"C[C@@H]1[C@@H](Oc2ccc(C(=O)NC3CC3)nc2)CN1Cc1cnc2cc(Cl)c(=O)[nH]c2c1 [Tartrate Form I, 5-(((2R,3S)-1-((7-chloro-6-oxo-5,6-dihydro-1,5-naphthyridin-3-yl)methyl)-2-methylazetidin-3-yl)oxy)-N-cyclopropylpicolinamide]",hygroscopicity (in words),[1],slightly hygroscopic
same,hygroscopicity (in words),[1]; listed as Tartrate Salt Form I,slightly hygroscopic
same,water uptake,[1]; at 80% RH,< 1% and 0.8%
same,water uptake,[1]; at 90% RH,1.4%
same,water uptake,"[1]; from 0 to 90% RH at 25° C., listed as Tartrate Salt Form I",about 1.1%
same,XRPD 0.5 h,[2]; FaSSIF,Amorphous
same,XRPD 2 h,[2]; FaSSIF,FB Form I
same,XRPD 24 h,[2]; FaSSIF,FB Form I
same,Solubility 0.5 h,[2]; [4],2088 µg/mL
same,Solubility 2 h,[2]; [4],1320 µg/mL
same,Solubility 24 h,[2]; [4],980 µg/mL
same,pH 0.5 h,[2]; [5],3.98
same,pH 2 h,[2]; [5],3.81
same,pH 24 h,[2]; [5],3.69
same,XRPD 0.5 h,[2]; FeSSIF,Amorphous
same,XRPD 2 h,[2]; FeSSIF,FB Form I
same,XRPD 24 h,[2]; FeSSIF,FB Form I
same,Solubility 0.5 h,[2]; [6],496 µg/mL
same,Solubility 2 h,[2]; [6],207 µg/mL
same,Solubility 24 h,[2]; [6],144 µg/mL
same,pH 0.5 h,[2]; [7],4.71
same,pH 2 h,[2]; [7],4.71
same,pH 24 h,[2]; [7],4.70
same,"XRPD 0.5 h, 2 h, 24 h",[2]; SGF,Clear
same,"Solubility 0.5 h, 2 h, 24 h","[2]; SGF, initial pH 1.23, 37° C.",>5000 µg/mL
same,pH 0.5 h,"[2]; SGF, initial pH 1.23, filtrate",1.32
same,pH 2 h,"[2]; SGF, initial pH 1.23, filtrate",1.17
same,pH 24 h,"[2]; SGF, initial pH 1.23, filtrate",1.25
same,XRPD 0.5 h,[2]; Water,Unchanged
same,XRPD 2 h,[2]; Water,Unchanged
same,Solubility 0.5 h,[2]; [8],4288 µg/mL
same,Solubility 2 h,[2]; [8],4422 µg/mL
same,Solubility 24 h,[2]; [8],293 µg/mL
same,pH 0.5 h,[2]; [9],3.63
same,pH 2 h,[2]; [9],3.58
same,pH 24 h,[2]; [9],3.73
same,form change of the solid,[2]; [10],dissociated into Freebase Form I
same,conversion rate to the freebase (in words),"[2]; in FaSSIF and FeSSIF, compared with Maleate Form IV",slower conversion rate; also recorded: slower form conversion
same,form change of the solid,[2]; in water at 24 h,converted into a new pattern
same,solubility compared to Freebase Form I (in words),[2],improved solubility
same,XRPD - 7 d,[3]; 40° C./75% RH (open),Unchanged
same,physical and chemical stability,[3],physically and chemically stable
same,XRPD - 7 d,[3]; 60° C. (capped),Unchanged
same,Initial Purity,[3],99.64 area %

# Reference: patent US20240317746A1, “CRYSTALLINE FORMS OF AN AZETIDINE PARP1 INHIBITOR” (XinThera, Inc., priority 2023, published 2024)
